Experimental data published in patent US20220143086A1, “METHOD OF HOMING AND RETENTION OF GAMMADELTA T CELLS, OPTIONALLY WITH NATURAL KILLER CELLS, FOR GENERATING CELL COMPOSITIONS FOR USE IN THERAPY” (Gamida Cell Ltd., priority 2019, published 2022).
Entries after “also recorded” stand apart in the source; their conditions may differ.

Key:
[1] = test system: alphabeta-depleted peripheral blood cells; assay: T-cell receptor characterization by FACS of CD3+ cells from cultured alphabeta-depleted blood cells; assay type: cell-based, human; settings: 5 mM nicotinamide
Description: (§1) Healthy donor blood units samples were depleted of TCR alphabeta-expressing T-cells using midiMACS™ columns and TCRα/β Kit (Miltenyi Biotec, Gaithersberg, Md.). Alphabeta-T-cell depleted populations were cultured for 12-13 days in VueLife® (Saint-Gobain, Gaithersburg, Md.) bags with medium supplemented with 0 (control) or 5 mM nicotinamide (NAM) and 50 ng/ml IL-2.
To characterize T cell receptor (TCR) expressed on CD3+ cells in culture, CD3 positive cells were purified with CliniMACS™ CD3 reagent (Miltenyi, 273-01, Gaithersburg, Md.) followed by FACS analysis of the percentages of CD3+/γδ+ and CD3+/α/β+ cells. FACS staining and analysis was performed according to standard procedures employing cell surface-specific antibodies.

gammadelta T cells [2] = assay: CD62L expression in expanded gammadelta T-cells (FACS); assay type: cell-based, human
Description: as §1
Purified gamma-delta T-cells from NAM-treated and control (−NAM) cultures were stained for CD62L (L-selectin) and analyzed by FACS, using anti-CD62L antibodies.

gammadelta T cells [3] = assay: Transplantation and in-vivo homing and retention of expanded gammadelta T-cells in irradiated NSG mice; settings: for in-vivo homing and tissue retention of gammadelta cells: cells expanded with 5 mM NAM, CFSE-labeled, i.v. into irradiated NSG mice, 4 days, all tissues analyzed
Description: as §1
CD3+/gammadelta+ cells were purified from culture, as described above, and then marked with CFSE (Invitrogen, Thermo-Fisher, Carlsbad, Calif.). NSG SCID mice were irradiated at 350cGy. The next day following irradiation, 5-6×10^6 CFSE-labeled CD3+/gammdelta-positive cells per mouse from NAM and control (−NAM) cultures were injected intravenously into the mice.
Mice were sacrificed 4 days after cell infusion, and organs excised. Fractions of CFSE stained cells were evaluated by FACS of organ cell suspensions.

[4] = cells cultured with 5 mM NAM, 4 days after infusion, irradiated NSG mice

NC(=O)c1cccnc1 [NAM, nicotinamide]
gammadelta T cells in CD3+ T-cell fraction ([1]; 50 ng/ml IL-2, 12-13 days culture, CD3+ selected, FACS): greater than 90% | effect on expansion of the gammadelta positive component of cultured T-cell populations ([1]; 12-13 days culture): does not seem to affect | CD62L expression (in words) (gammadelta T cells [2]; 5 mM NAM versus identical cells cultured without NAM): striking enhancement | increase in CD62L expression (gammadelta T cells [2]; 5 mM nicotinamide, 12-13 days culture, versus culture without NAM): ~3 fold | gammadelta T-cells retained in blood and lung tissue (gammadelta T cells [3]; [4]): nearly three-fold increase | gammadelta T-cells retained in lymphoid tissue (spleen, bone marrow) (gammadelta T cells [3]; [4]): powerful enhancement | in-vivo homing and tissue retention of gammadelta cells (gammadelta T cells [3]): enhanced incidence of homing and retention; also recorded: striking effect | in-vivo homing and tissue retention of gammadelta cells (gammadelta T cells [3]; listed as nicotinamide): greater homing and tissue retention
